Measured values: patent US11203600B2 (Denali Therapeutics Inc., priority 2017, dated 2021)

The compounds below were run against GST-hRIPK1 (8-327) (Homo sapiens (Human), UniProt Q13546) (assay: Fluorescent Polarization Binding (FP Binding) assay, RIPK1). Settings: 10 nM GST-hRIPK1 (8-327), 5 nM fluorescent-labeled ligand, RT, 30 min, mean of at least two independent experiments.
Description: Fluorescent Polarization Binding (FP Binding) assay (Berger S. B. et al. (2015) Cell Death Discovery, 1: 15009; Maki J. L. et al. (2012) Anal Biochem., 427(2): 164-174) was performed in polystyrene low volume 384-well black plate, at RT in a final volume of 10.1 μl/well using 10 nM of GST-hRIPK1 (8-327) enzyme and 5 nM of fluorescent-labeled ligand (14-(2-{[3-({2-{[4-(cyanomethyl)phenyl]amino]-6-[(5-cyclopropyl-1H-pyrazol-3-yl)amino]-4-pyrimidinyl}amino) propyl}amino}-2-oxoethyl)-16,16,18,18-tetramethyl-6,7,7a,8a,9,10,16,18-octahydrobenzo [2″,3″]indolizino[8″,7″:5′,6′]pyrano [3′,2′:3,4]pyrido[1,2-a]indo1-5-ium-2-sulfonate.
Test compounds were serially diluted in DMSO at 100 fold final concentrations in the assay (1% DMSO final). In each well of a 384-well Plate were dispensed 0.1 μL of compound solution (or DMSO for controls) followed by 5 μL of GST-hRIPK1 (8-327) at twice the final concentrations in assay buffer (50 mM HEPES pH 7.5, 10 mM NaCl, 50 mM MgCl2, 0.02% CHAPS, 0.5 mM DTT and 0.01% Pluronic F127). For negative control the enzyme addition was replaced by assay buffer only.
After addition of 5 μL of fluorescentlabeled ligand at twice the final concentrations in assay buffer, the plate was incubated at RT for […]. At the end, the binding was measured as FP value with the Envision (PerkinElmer) plate reader using filter for an excitation λ=531 nm FP and an emission λ=595 nm FP (S & P-pol). GST-hRIPK1 (8-327) enzyme was produced via Baculovirus expression.
Test compound inhibition was expressed as percent inhibition of internal assay controls. For concentration response curves, normalized data is fit and IC50 determined using XL-fit (IDBS) for Excel. The IC50 values were averaged to determine a mean value, for a minimum of two independent experiments. Results are shown in Table 2 (RIPK1 IC50) values: +++=0.1 nM<IC50<100 nM; ++=100 nM<IC50<1 μM; +=1 μM<IC50).

GST-hRIPK1 (8-327), sequence (Q13546 8-327): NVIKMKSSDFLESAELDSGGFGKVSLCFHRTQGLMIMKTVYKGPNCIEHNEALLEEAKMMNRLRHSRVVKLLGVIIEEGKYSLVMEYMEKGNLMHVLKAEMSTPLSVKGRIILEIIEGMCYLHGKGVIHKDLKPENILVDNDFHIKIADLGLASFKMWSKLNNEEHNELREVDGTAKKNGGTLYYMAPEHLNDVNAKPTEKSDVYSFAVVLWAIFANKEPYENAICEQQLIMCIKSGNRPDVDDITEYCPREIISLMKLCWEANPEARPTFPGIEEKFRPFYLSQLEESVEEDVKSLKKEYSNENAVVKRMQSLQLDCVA

| SMILES | IC50 [nM] |
| --- | --- |
| Cc1cnc(N2CCC(F)(C(=O)N3CCOc4c(C#N)cncc4C3)CC2)nc1 [Example 163, 4-[4-fluoro-1-(5-methylpyrimidin-2-yl)piperidine-4-carbonyl]-3,5-dihydro-2H-pyrido[3,4-f][1,4]oxazepine-9-carbonitrile] | 100 to 1000 |
| COc1cnc(N2CCC(F)(C(=O)N3CCOc4c(C#N)cncc4C3)CC2)nc1 [Example 101, 4-[4-fluoro-1-(5-methoxypyrimidin-2-yl)piperidine-4-carbonyl]-3,5-dihydro-2H-pyrido[3,4-f][1,4]oxazepine-9-carbonitrile] | 100 to 1000 |
| CC(C)(C(=O)N1CCOc2c(C#N)cncc2C1)C1CC1 [Example 30, 4-(2-cyclopropyl-2-methyl-propanoyl)-3,5-dihydro-2H-pyrido[3,4-f][1,4]oxazepine-9-carbonitrile] | 0.1 to 100 |
| CC(C)(C(=O)N1CCOc2cc(C(F)(F)F)ncc2C1)C(F)F [Example 66, 3,3-difluoro-2,2-dimethyl-1-[8-(trifluoromethyl)-3,5-dihydro-2H-pyrido[3,4-f][1,4]oxazepin-4-yl]propan-1-one] | > 1000 |
| N#Cc1cncc2c1OCCN(C(=O)C1(F)CC1)C2 [Example 140, 4-(1-fluorocyclopropanecarbonyl)-3,5-dihydro-2H-pyrido[3,4-f][1,4]oxazepine-9-carbonitrile] | > 1000 |
| CC(C)(C(=O)N1CCOc2c(C#N)cncc2C1)C1CC(F)(F)C1 [Example 84, 4-[2-(3,3-difluorocyclobutyl)-2-methyl-propanoyl]-3,5-dihydro-2H-pyrido[3,4-f][1,4]oxazepine-9-carbonitrile] | 0.1 to 100 |
| COc1cnc(Cl)nc1N1CCC(F)(C(=O)N2CCOc3c(C#N)cncc3C2)CC1 [Example 186, 4-[1-(2-chloro-5-methoxy-pyrimidin-4-yl)-4-fluoro-piperidine-4-carbonyl]-3,5-dihydro-2H-pyrido[3,4-f][1,4]oxazepine-9-carbonitrile] | > 1000 |
| O=C(C1CCN(c2ncc(F)cn2)CC1)N1CCOc2ccccc2C1 [Example 8, 3,5-dihydro-2H-1,4-benzoxazepin-4-yl-[1-(5-fluoropyrimidin-2-yl)-4-piperidyl]methanone] | 0.1 to 100 |
| Cc1cc(C(F)(F)F)nc(N2CCC(F)(C(=O)N3CCOc4c(C#N)cncc4C3)CC2)n1 [Example 168, 4-[4-fluoro-1-[4-methyl-6-(trifluoromethyl)pyrimidin-2-yl]piperidine-4-carbonyl]-3,5-dihydro-2H-pyrido[3,4-f][1,4]oxazepine-9-carbonitrile] | 100 to 1000 |
| N#Cc1cncc2c1OCCN(C(=O)C1(F)CCN(c3ncc(F)c(OCC(F)F)n3)CC1)C2 [Example 125, 4-[1-[4-(2,2-difluoroethoxy)-5-fluoro-pyrimidin-2-yl]-4-fluoro-piperidine-4-carbonyl]-3,5-dihydro-2H-pyrido[3,4-f][1,4]oxazepine-9-carbonitrile] | 0.1 to 100 |
| N#Cc1cncc2c1OCCN(C(=O)C1(C#N)CCN(c3ncc(F)cn3)CC1)C2 [Example 182, 4-[4-cyano-1-(5-fluoropyrimidin-2-yl)piperidine-4-carbonyl]-3,5-dihydro-2H-pyrido[3,4-f][1,4]oxazepine-9-carbonitrile] | 100 to 1000 |
| COc1nc(N2CCC(OC)(C(=O)N3CCOc4c(F)cncc4C3)CC2)ncc1F [Example 122, (9-fluoro-3,5-dihydro-2H-pyrido[3,4-f][1,4]oxazepin-4-yl)-[1-(5-fluoro-4-methoxy-pyrimidin-2-yl)-4-methoxy-4-piperidyl]methanone] | 0.1 to 100 |
| CC(C)(C(=O)N1CCOc2cc(C#N)ccc2C1)C(F)F [Example 28, 4-(3,3-difluoro-2,2-dimethyl-propanoyl)-3,5-dihydro-2H-1,4-benzoxazepine-8-carbonitrile] | 100 to 1000 |
| N#Cc1cncc2c1OCCN(C(=O)C1(F)CCN(c3cnccn3)CC1)C2 [Example 87, 4-(4-fluoro-1-pyrazin-2-yl-piperidine-4-carbonyl)-3,5-dihydro-2H-pyrido[3,4-f][1,4]oxazepine-9-carbonitrile] | 100 to 1000 |
| CC(C)(C(=O)N1CCOc2c(F)cncc2C1)C(F)F [Example 55, 3,3-difluoro-1-(9-fluoro-3,5-dihydro-2H-pyrido[3,4-f][1,4]oxazepin-4-yl)-2,2-dimethyl-propan-1-one] | 100 to 1000 |
| N#Cc1cncc2c1OCCN(C(=O)C1(F)CCN(c3ncc(F)cn3)CC1)C2 [Example 161, 4-[4-fluoro-1-(5-fluoropyrimidin-2-yl)piperidine-4-carbonyl]-3,5-dihydro-2H-pyrido[3,4-f][1,4]oxazepine-9-carbonitrile] | 0.1 to 100 |
| CC(C)(CF)C(=O)N1CCOc2c(C#N)cncc2C1 [Example 144, 4-(3-fluoro-2,2-dimethyl-propanoyl)-3,5-dihydro-2H-pyrido[3,4-f][1,4]oxazepine-9-carbonitrile] | 0.1 to 100 |
| O=C(C(C1CC1)C1CC1)N1CCOc2c(F)cccc2C1 [Example 19, 2,2-dicyclopropyl-1-(9-fluoro-3,5-dihydro-2H-1,4-benzoxazepin-4-yl)ethanone] | > 1000 |
| N#Cc1cncc2c1OCCN(C(=O)C1CCN(c3ncc(F)c(OCC(F)F)n3)CC1)C2 [Example 131, 4-(1-(4-(2,2-difluoroethoxy)-5-fluoropyrimidin-2-yl)piperidine-4-carbonyl)-2,3,4,5-tetrahydropyrido[3,4-f][1,4]oxazepine-9-carbonitrile] | 0.1 to 100 |
| N#Cc1cncc2c1OCCN(C(=O)C13CC(COc4ncc(F)cn4)(C1)C3)C2 [Example 93, 4-(3-(((5-fluoropyrimidin-2-yl)oxy)methyl)bicyclo[1.1.1]pentane-1-carbonyl)-2,3,4,5-tetrahydropyrido[3,4-f][1,4]oxazepine-9-carbonitrile] | 100 to 1000 |
| N#Cc1cncc2c1OCCN(C(=O)C1(F)CCN(c3ccnc4nccn34)CC1)C2 [Example 180] | 100 to 1000 |
| CCC(C)(C)C(=O)N1CCCc2ccccc2C1 [Example 4, 2,2-dimethyl-1-(1,3,4,5-tetrahydro-2-benzazepin-2-yl)butan-1-one] | 100 to 1000 |

Same assay, conditions: GST-hRIPK1 (8-327), mean of at least two independent experiments

| SMILES | IC50 [nM] |
| --- | --- |
| CC(C)(C(=O)N1CCOc2c(C#N)cncc2C1)C1CC(n2ccnn2)C1 (stereo not shown) [Example 276, 4-[2-Methyl-2-[3-(triazol-1-yl)cyclobutyl]propanoyl]-3,5-dihydro-2H-pyrido[3,4-f][1,4]oxazepine-9-carbonitrile] | > 1000 |
| CC(C(=O)N1CCOc2c(C#N)cncc2C1)(C(F)F)C1CC1 (single isomer, unassigned) [Example 258, 4-(2-Cyclopropyl-3,3-difluoro-2-methyl-propanoyl)-3,5-dihydro-2H-pyrido[3,4-f][1,4]oxazepine-9-carbonitrile] | 0.1 to 100 |
| O=C(C1=CCN(c2ncc(F)cn2)CC1)N1CCOc2c(F)cncc2C1 [Example 248] | 100 to 1000 |
| N#Cc1cncc2c1OCCN(C(=O)C1CCN(c3ncc(F)cn3)CC1(F)F)C2 (stereo not shown) [Example 243, 4-[3,3-difluoro-1-(5-fluoropyrimidin-2-yl)piperidine-4-carbonyl]-3,5-dihydro-2H-pyrido[3,4-f][1,4]oxazepine-9-carbonitrile] | 100 to 1000 |
| N#Cc1cncc2c1OCCN(C(=O)C1CCN(c3ccnc4c(Cl)cnn34)CC1)C2 [Example 229, 4-[1-(3-chloropyrazolo[1,5-a]pyrimidin-7-yl)piperidine-4-carbonyl]-3,5-dihydro-2H-pyrido[3,4-f][1,4]oxazepine-9-carbonitrile] | 0.1 to 100 |
| N#Cc1cncc2c1OCCN(C(=O)C1(F)CCN(c3ccc4ccccc4n3)CC1)C2 [Example 200, 4-[4-fluoro-1-(2-quinolyl)piperidine-4-carbonyl]-3,5-dihydro-2H-pyrido[3,4-f][1,4]oxazepine-9-carbonitrile] | 0.1 to 100 |
| N#Cc1cncc2c1OCCN(C(=O)C1(F)CCN(c3ncc(F)cn3)CC1(F)F)C2 (single isomer, unassigned) [Example 296, 4-[3,3,4-Trifluoro-1-(5-fluoropyrimidin-2-yl)piperidine-4-carbonyl]-3,5-dihydro-2H-pyrido[3,4-f][1,4]oxazepine-9-carbonitrile] | 0.1 to 100 |
| COc1nc(N2CCC(OC)(C(=O)N3CCOc4c(C#N)cncc4C3)CC2)c(F)cc1F [Example 289, 4-[1-(3,5-difluoro-6-methoxy-2-pyridyl)-4-methoxy-piperidine-4-carbonyl]-3,5-dihydro-2H-pyrido [3,4-f][1,4]oxazepine-9-carbonitrile] | 0.1 to 100 |
| N#Cc1cncc2c1OCCN(C(=O)C1CCN(c3ncc(F)cn3)C[C@@H]1F)C2 (stereo partly drawn) [Example 242, 4-[(3,4)-trans-3-fluoro-1-(5-fluoropyrimidin-2-yl)piperidine-4-carbonyl]-3,5-dihydro-2H-pyrido[3,4-f][1,4]oxazepine-9-carbonitrile] | 0.1 to 100 |
